For 10 compounds, IC50 results are on record in US11123355B2, “Antiviral benzyl-amine phosphodiamide compounds” (Merck Sharp & Dohme Corp., priority 2016, dated 2021).

Where two headings read alike, the source gives them in different places.

The experiment relates to HIV-1 (H9/IIB strain). Briefly: Multiple Round HIV-1 Infection Assay (Viking Assay) in MT4-GFP cells. Type of experiment: cell-based. As to conditions: inhibition of reproductive ratio R0. The procedure:
Assessing antiviral potency in a Multiple Round HIV-1 Infection Assay (Viking Assay) The antiviral activity of the tenofovir prodrugs of the Examples herein was assessed in an assay that measures the rate of replication of HIV in cell culture, termed the Viking assay (VIral KINetics in Green cells) and performed as follows. HIV-1 replication was monitored using MT4-gag-GFP clone D3 (hereafter designated MT4-GFP), which are MT-4 cells modified to harbor a GFP reporter gene, the expression of which is dependent on the HIV-1 expressed proteins tat and rev. Productive infection of an MT4-GFP cell with HIV-1 results in GFP expression approximately 24 h post-infection. MT4-GFP cells were maintained at 37° C./5% CO2/90% relative humidity in RPMI 1640 supplemented with 10/o fetal bovine serum, 100 U/ml penicillin/streptomycin, and 400 μg/ml G418 to maintain the reporter gene. For infections, MT4-GFP cells were placed in the same medium lacking G418 and infected overnight with HIV-1 (H9/IIB strain) virus at an approximate multiplicity of infection of 0.01 in the same incubation conditions. Cells were then washed and re-suspended in either RPMI 1640 supplemented with 10% or 50% normal human serum (NHS) at 1.6×10^5 cells/mL (10% NHS or 50% NHS, respectively). Compound plates were prepared by dispensing compounds dissolved in DMSO into wells of 384 well poly-D-lysine-coated plates (0.2 μl/well) using an ECHO acoustic dispenser. Each compound was tested in a 10-point serial 3-fold dilution (typical final concentrations: 8.4 μM-0.42 nM). Controls included no inhibitor (DMSO only) and a combination of three antiviral agents (efavirenz, indinavir, an in-house integrase strand transfer inhibitor at final concentrations of 4 μM each). Cells were added (50 μL/well) to compound plates and the infected cells were maintained at 37° C./5% CO2/90% relative humidity.
Infected cells were quantified at two time points, ˜48 h and ˜72 h post-infection, by counting the number of green cells in each well using an Acumen eX3 scanner. The increase in the number of green cells over ˜24 h period gives the reproductive ratio, R0, which is typically 5-15 and has been shown experimentally to be in logarithmic phase (data not shown). Inhibition of R0 is calculated for each well, and IC50s determined by non-linear 4-parameter curve fitting.

Where [1] appears, read: MT4-GFP cells infected with HIV-1, 10% normal human serum, read-out: Viking, IC50 (10% NHS).
Where [2] appears, read: MT4-GFP cells infected with HIV-1, 50% normal human serum, read-out: Viking, IC50 (50% NHS).

Consider `CCCOC(=O)C(C)(C)N[P@@](=O)(CO[C@H](C)Cn1cnc2c(N)ncnc21)N[C@H](c1cccc(F)c1)C(F)(F)F` [Example 22A, propyl 2-(((R)-((((R)-1-(6-amino-9H-purin-9-yl)propan-2-yl)oxy)methyl)(((R)-2,2,2-trifluoro-1-(3-fluorophenyl)ethyl)amino)phosphoryl)ami-no)-2-methylpropanoate and propyl 2-(((S)-((((R)-1-(6-amino-9H-purin-9-yl)propan-2-yl)oxy)methyl)(((R)-2,2,2-trifluoro-1-(3-fluorophenyl)ethyl)amino)phosphoryl)ami-no)-2-methylpropanoate], for which the IC50 under setting [1] came out at 8.1 nM and the IC50 under setting [2] was 74 nM.
On the same counts, the results for `CCCOC(=O)C(C)(C)N[P@@](=O)(CO[C@H](C)Cn1cnc2c(N)ncnc21)N[C@H](c1cccc(F)c1)C(F)(F)F` [Example 22B, propyl 2-(((R)-((((R)-1-(6-amino-9H-purin-9-yl)propan-2-yl)oxy)methyl)(((R)-2,2,2-trifluoro-1-(3-fluorophenyl)ethyl)amino)phosphoryl)ami-no)-2-methylpropanoate and propyl 2-(((S)-((((R)-1-(6-amino-9H-purin-9-yl)propan-2-yl)oxy)methyl)(((R)-2,2,2-trifluoro-1-(3-fluorophenyl)ethyl)amino)phosphoryl)ami-no)-2-methylpropanoate] are 42 nM and 330 nM.
Taken in the same sequence, the figures for `CCCOC(=O)C(C)(C)NP(=O)(CO[C@H](C)Cn1cnc2c(N)ncnc21)N[C@H](c1cccc(OC)c1)C(F)(F)F` (stereo partly drawn) [Example 25B, propyl 2-(((R)-((((R)-1-(6-amino-9H-purin-9-yl)propan-2-yl)oxy)methyl)(((R)-2,2,2-trifluoro-1-(3-methoxyphenyl)ethyl)amino)phosphoryl)a-mino)-2-methylpropanoate and propyl 2-(((S)-((((R)-1-(6-amino-9H-purin-9-yl)propan-2-yl)oxy)methyl)(((R)-2,2,2-trifluoro-1-(3-methoxyphenyl)ethyl)amino)phosphoryl)a-mino)-2-methylpropanoate] were 15 nM and 97 nM.
Taken in the same sequence, the figures for `CCCOC(=O)C(C)(C)N[P@@](=O)(CO[C@H](C)Cn1cnc2c(N)ncnc21)N[C@@H](c1cccc(OC)c1)C(F)(F)F` [Example 28A, propyl 2-(((R)-((((R)-1-(6-amino-9H-purin-9-yl)propan-2-yl)oxy)methyl)(((S)-2,2,2-trifluoro-1-(3-methoxyphenyl)ethyl)amino)phosphoryl)a-mino)-2-methylpropanoate and propyl 2-(((S)-((((R)-1-(6-amino-9H-purin-9-yl)propan-2-yl)oxy)methyl)(((S)-2,2,2-trifluoro-1-(3-methoxyphenyl)ethyl)amino)phosphoryl)a-mino)-2-methylpropanoate] were 29 nM and 330 nM.
Regarding `CCCOC(=O)C(C)(C)N[P@@](=O)(CO[C@H](C)Cn1cnc2c(N)ncnc21)N[C@@H](c1cccc(OC)c1)C(F)(F)F` [Example 28B, propyl 2-(((R)-((((R)-1-(6-amino-9H-purin-9-yl)propan-2-yl)oxy)methyl)(((S)-2,2,2-trifluoro-1-(3-methoxyphenyl)ethyl)amino)phosphoryl)a-mino)-2-methylpropanoate and propyl 2-(((S)-((((R)-1-(6-amino-9H-purin-9-yl)propan-2-yl)oxy)methyl)(((S)-2,2,2-trifluoro-1-(3-methoxyphenyl)ethyl)amino)phosphoryl)a-mino)-2-methylpropanoate], the IC50 under setting [1] turned out to be 17 nM and the 50% inhibitory concentration (IC50) under setting [2] stood at 120 nM.
Taken in the same sequence, the figures for `CCCOC(=O)C(C)(C)N[P@@](=O)(CO[C@H](C)Cn1cnc2c(N)ncnc21)N[C@H](C)c1ccc(Cl)cc1C` [Example 29A, propyl 2-(((R)-((((R)-1-(6-amino-9H-purin-9-yl)propan-2-yl)oxy)methyl)(((R)-1-(4-chloro-2-methylphenyl)ethyl)amino)phosphoryl)ami-no)-2-methylpropanoate and propyl 2-(((S)-((((R)-1-(6-amino-9H-purin-9-yl)propan-2-yl)oxy)methyl)(((R)-1-(4-chloro-2-methyphenyl)ethyl)amino)phosphoryl)ami-no)-2-methylpropanoate] were 260 nM and 2300 nM.
On the same counts, the results for `CCCOC(=O)C(C)(C)NP(=O)(CO[C@H](C)Cn1cnc2c(N)ncnc21)N[C@@H](C)c1ccc(Cl)cc1C` (stereo partly drawn) [Example 30A, propyl 2-(((R)-((((R)-1-(6-amino-9H-purin-9-yl)propan-2-yl)oxy)methyl)(((S)-1-(4-chloro-2-methylphenyl)ethyl)amino)phosphoryl)ami-no)-2-methylpropanoate and propyl 2-(((S)-((((R)-1-(6-amino-9H-purin-9-yl)propan-2-yl)oxy)methyl)(((S)-1-(4-chloro-2-methylphenyl)ethyl)amino)phosphoryl)ami-no)-2-methylpropanoate] are 24 nM and 350 nM.
On the same counts, the results for `CCCOC(=O)C(C)(C)NP(=O)(CO[C@H](C)Cn1cnc2c(N)ncnc21)N[C@@H](C)c1ccc(Cl)cc1C` (stereo partly drawn) [Example 30B, propyl 2-(((R)-((((R)-1-(6-amino-9H-purin-9-yl)propan-2-yl)oxy)methyl)(((S)-1-(4-chloro-2-methylphenyl)ethyl)amino)phosphoryl)ami-no)-2-methylpropanoate and propyl 2-(((S)-((((R)-1-(6-amino-9H-purin-9-yl)propan-2-yl)oxy)methyl)(((S)-1-(4-chloro-2-methylphenyl)ethyl)amino)phosphoryl)ami-no)-2-methylpropanoate] are 56 nM and 750 nM.
For the compound `CCCOC(=O)C(C)(C)NP(=O)(CO[C@H](C)Cn1cnc2c(N)ncnc21)N[C@H](C)c1ccc(C#N)cc1` (stereo partly drawn) [Example 31A, propyl 2-(((R)-((((R)-1-(6-amino-9H-purin-9-yl)propan-2-yl)oxy)methyl)(((R)-1-(4-cyanophenyl)ethyl)amino)phosphoryl)ami-no)-2-methylpropanoate and propyl 2-(((S)-((((R)-1-(6-amino-9H-purin-9-yl)propan-2-yl)oxy)methyl)(((R)-1-(4-cyanophenyl)ethyl)amino)phosphoryl)ami-no)-2-methylpropanoate], the IC50 by setting is: under setting [1], 83 nM; under setting [2], 770 nM.
On the same counts, the results for `CCCOC(=O)C(C)(C)NP(=O)(CO[C@H](C)Cn1cnc2c(N)ncnc21)N(C)Cc1ccc(C(C)C)cc1` (stereo partly drawn) [Example 32A, propyl 2-(((R)-((((R)-1-(6-amino-9H-purin-9-yl)propan-2-yl)oxy)methyl)((4-isopropylbenzyl)(methyl)amino)phos-phoryl)amino)-2-methylpropanoate and propyl 2-(((S)-((((R)-1-(6-amino-9H-purin-9-yl)propan-2-yl)oxy)methyl)((4-isopropylbenzyl)(methyl)amino)phos-phoryl)amino)-2-methylpropanoate] are 1.7 nM and 6.7 nM.
